Measured values as given in patent US8163779B2, “Glucokinase activators” (Takeda San Diego, Inc., priority 2006, dated 2012).
Counter-ions that a name gives are not always drawn.

target: T1, glucokinase (GK) (Homo sapiens, UniProt P35557); test: enzymatic glucokinase activity assay (ATP consumption, KinaseGlo luminescence); type: biochemical; conditions: recombinant GK residues 12-465; 5 μM ATP, 5 mM Glucose; Kact = concentration that displays 50% of the maximal increase in GK activity; read-out: pKact
T1 construct: I.D. No. 1 corresponds to residues 12-465 of glucokinase; made in house; host or cells: E. coli DH10b-T1r
T1 sequence (P35557 with tags, fused parts or gaps isoform P35557-2): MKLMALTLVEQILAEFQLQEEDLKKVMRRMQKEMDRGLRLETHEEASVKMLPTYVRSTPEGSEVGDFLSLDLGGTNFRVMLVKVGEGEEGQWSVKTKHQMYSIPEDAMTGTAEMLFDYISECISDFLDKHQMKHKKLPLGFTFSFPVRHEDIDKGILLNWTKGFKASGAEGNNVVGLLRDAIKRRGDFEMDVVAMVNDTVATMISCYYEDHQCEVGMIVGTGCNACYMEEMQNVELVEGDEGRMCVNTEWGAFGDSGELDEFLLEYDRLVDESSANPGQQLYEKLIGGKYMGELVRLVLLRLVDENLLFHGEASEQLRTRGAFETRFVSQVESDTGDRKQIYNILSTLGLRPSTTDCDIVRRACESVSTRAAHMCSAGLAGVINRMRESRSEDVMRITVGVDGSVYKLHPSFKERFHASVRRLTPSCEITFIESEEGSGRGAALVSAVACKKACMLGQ
Source text: The activity of compounds as glucokinase activators may be assayed in vitro, in vivo or in a cell line. Provided below is an enzymatic glucokinase activity assay.
Purified glucokinase may be obtained as follows. […] SEQ.
The expression of recombinant glucokinase protein may be carried out by transformation and growth of DH10b-T1r E. coli cells incorporating the (pFLAG-CTC) plasmid in LB media. Protein expression can be induced in this system by the addition of IPTG to the culture medium.
Recombinant protein may be isolated from cellular extracts by passage over Sepharose Q Fast Flow resin (Pharmacia). This partially purified GK extract may then be further purified by a second passage over Poros HQ 10 (Applied Biosystems). The purity of GK may be determined on denaturing SDS-PAGE gel. Purified GK may then be concentrated to a final concentration of 20.0 mg/ml. After flash freezing in liquid nitrogen, the proteins can be stored at −78° C. in a buffer containing 25 mM TRIS-HCl pH 7.6, 50 mM NaCl, and 0.5 mM TCEP.
The activation properties of compounds for GK may be determined using a black 384-well-plate format under the following reaction conditions: 25 mM Hepes pH 7.2, 25 mM NaCl, 10 mM MgCl2, 0.01% Brij35, 1 mM DTT, 5 μM ATP, 5 mM Glucose 2% DMSO. The amount of ATP consumed may be determined quantitatively by addition of equal volume of luciferase reagent (luciferase+beetle luciferin—KinaseGlo Luminescent Kinase Assay kit from Promega). The luminescence intensity may be measured by using the Analyst HT from LJL Biosystems.
The reaction mixture may then be incubated at room temperature for 60 min, and quenched and developed by addition of 10 μL of luciferase reagent. Luminescence intensities of the resulting reaction mixtures may be measured after a 10 min incubation at room temperature. The luminescence intensity may be measured by using the Analyst HT from LJL Biosystems.
pKact values may be calculated by non-linear curve fitting of the compound concentrations and luminescence intensities to a standard inhibition/activation equation.

| SMILES | EC50 |
| --- | --- |
| Cc1cc(-c2ccc(S(C)(=O)=O)cc2)cc(=O)n1[C@@H](CC1CCCCC1)C(=O)Nc1nccs1 [Example 101, (S)-3-cyclohexyl-2-(6-methyl-4-(4-(methylsulfonyl)phenyl)-2-oxopyridin-1(2H)-yl)-N-(thiazol-2-yl)propanamide] | > 15.8 µM |
| CC(=O)Nc1ccc(=O)n(C(CC2CCOCC2)C(=O)Nc2ncc(Cl)s2)c1 (stereo not shown) [Example 156, 2-(5-acetamido-2-oxopyridin-1(2H)-yl)-N-(5-chlorothiazol-2-yl)-3-(tetrahydro-2H-pyran-4-yl)propanamide] | > 15.8 µM |
| Cc1cc(S(=O)(=O)C2CC2)cc(=O)n1[C@@H](CC1CCCC1)C(=O)Nc1ncc(Cl)s1 [Example 183, (S)-N-(5-chlorothiazol-2-yl)-3-cyclopentyl-2-(4-(cyclopropylsulfonyl)-6-methyl-2-oxopyridin-1(2H)-yl)propanamide] | < 1.58 µM |
| O=C(Nc1ncc(CN2CCOCC2)s1)C(CC1CCOCC1)n1ccc(S(=O)(=O)C2CC2)cc1=O (stereo not shown) [Example 145, 2-(4-(cyclopropylsulfonyl)-2-oxopyridin-1(2H)-yl)-N-(5-(morpholinomethyl)thiazol-2-yl)-3-(tetrahydro-2H-pyran-4-yl)propanamide] | > 15.8 µM |
| Cc1cc(O)cc(=O)n1C(CC1CCCCC1)C(=O)Nc1nccs1 (stereo not shown) [Example 1, 3-cyclohexyl-2-(4-hydroxy-6-methyl-2-oxopyridin-1(2H)-yl)-N-(thiazol-2-yl)propanamide trifluoroacetic acid salt] | > 15.8 µM |
| COC(=O)c1cnc(NC(=O)[C@H](CC2CCOCC2)n2ccc(S(=O)(=O)C3CCCC3)cc2=O)s1 [Example 45, (5)-methyl 2-(2-(4-(cyclopentylsulfonyl)-2-oxopyridin-1(2H)-yl)-3-(tetrahydro-2H-pyran-4-yl)propanamido)thiazole-5-carboxylate] | < 1.58 µM |
| Cc1cc(S(=O)(=O)c2cc(C)n(C(CC3CCCCC3)C(=O)Nc3ncc(Cl)s3)c(=O)c2)c(C)o1 (stereo not shown) [Example 83, N-(5-chlorothiazol-2-yl)-3-cyclohexyl-2-(4-(2,5-dimethylfuran-3-ylsulfonyl)-6-methyl-2-oxopyridin-1(2H)-yl)propanamide] | < 1.58 µM |
| Cc1cc(S(=O)(=O)C2CCCC2)cc(=O)n1C(CC1CCCCC1)C(=O)Nc1ncc(Cc2ccc(F)cc2)s1 (stereo not shown) [Example 82, 3-cyclohexyl-2-(4-(cyclopentylsulfonyl)-6-methyl-2-oxopyridin-1(2H)-yl)-N-(5-(4-fluorobenzyl)thiazol-2-yl)propanamide] | < 1.58 µM |
| Cc1cc(S(=O)(=O)C2CCCC2)cc(=O)n1[C@H](CC1CCOCC1)C(=O)Nc1ccc(C(N)=O)cn1 [Example 181, (R)-6-(2-(4-(cyclopentylsulfonyl)-6-methyl-2-oxopyridin-1(2H)-yl)-3-(tetrahydro-2H-pyran-4-yl)propanamido)nicotinamide] | > 15.8 µM |
| COc1ccc2nc(NC(=O)[C@H](CC3CCCCC3)n3c(C)cc(S(=O)(=O)C4CC4)cc3=O)sc2n1 [Example 123, (S)-3-cyclohexyl-2-(4-(cyclopropylsulfonyl)-6-methyl-2-oxopyridin-1(2H)-yl)-N-(5-methoxythiazolo[5,4-b]pyridin-2-yl)propanamide] | < 1.58 µM |
| Cc1cc(S(=O)(=O)C2CC2)c(N)c(=O)n1[C@H](CC1CCCC1)C(=O)Nc1ncc(F)s1 [Example 154, (R)-2-(3-amino-4-(cyclopropylsulfonyl)-6-methyl-2-oxopyridin-1(2H)-yl)-3-cyclopentyl-N-(5-fluorothiazol-2-yl)propanamide] | 1.58 to 15.8 µM |
| Cc1cc(-c2cc3ccccc3s2)cc(=O)n1[C@@H](CC1CCCCC1)C(=O)Nc1nccs1 [Example 108, (S)-2-(4-(benzo[b]thiophen-2-yl)-6-methyl-2-oxopyridin-1(2H)-yl)-3-cyclohexyl-N-(thiazol-2-yl)propanamide] | > 15.8 µM |
| O=C(Nc1ccc(Cl)cn1)[C@@H](CC1CCOCC1)n1ccc(S(=O)(=O)C2CCCC2)cc1=O [Example 41, (R)-N-(5-chloropyridin-2-yl)-2-(4-(cyclopentylsulfonyl)-2-oxopyridin-1(2H)-yl)-3-(tetrahydro-2H-pyran-4-yl)propanamide] | > 15.8 µM |
| CN(C)C(=O)CN1CCN(Cc2cnc(NC(=O)C(CC3CCOCC3)n3ccc(S(=O)(=O)C4CC4)cc3=O)s2)CC1 (stereo not shown) [Example 150, 2-(4-(cyclopropylsulfonyl)-2-oxopyridin-1(2H)-yl)-N-(5-((4-(2-(dimethylamino)-2-oxoethyl)piperazin-1-yl)methyl)thiazol-2-yl)-3-(tetrahydro-2H-pyran-4-yl)propanamide] | > 15.8 µM |
| COc1cccc(-c2cc(C)n([C@@H](CC3CCCCC3)C(=O)Nc3nccs3)c(=O)c2)c1 [Example 95, (S)-3-cyclohexyl-2-(4-(3-methoxyphenyl)-6-methyl-2-oxopyridin-1(2H)-yl)-N-(thiazol-2-yl)propanamide] | 1.58 to 15.8 µM |
| O=C(Nc1ncc(Cl)s1)[C@H](CC1CCOCC1)n1ccc(S(=O)(=O)C2CCCC2)cc1=O [Example 32, (S)-N-(5-chlorothiazol-2-yl)-2-(4-(cyclopentylsulfonyl)-2-oxopyridin-1(2H)-yl)-3-(tetrahydro-2H-pyran-4-yl)propanamide] | < 1.58 µM |
| Cc1cc(S(=O)(=O)C2CCCC2)cc(=O)n1C(CC1CCCC1)C(=O)Nc1nccs1 (stereo not shown) [Example 14, 3-cyclopentyl-2-(4-(cyclopentylsulfonyl)-6-methyl-2-oxopyridin-1(2H)-yl)-N-(thiazol-2-yl)propanamide] | < 1.58 µM |

Further lines, results first:

| EC50 | SMILES |
| --- | --- |
| 1.58 to 15.8 µM | Cc1ccc(S(=O)(=O)c2cc(C)n(C(CC(C)(C)C)C(=O)Nc3ncc(F)s3)c(=O)c2)cc1 (stereo not shown) [Example 43, N-(5-fluorothiazol-2-yl)-4,4-dimethyl-2-(6-methyl-2-oxo-4-tosylpyridin-1(2H)-yl)pentanamide] |
| 1.58 to 15.8 µM | Cc1cc(S(=O)(=O)C2CCOCC2)cc(=O)n1C(CC1CCCC1)C(=O)Nc1ncc(F)s1 (stereo not shown) [Example 175, 3-cyclopentyl-N-(5-fluorothiazol-2-yl)-2-(6-methyl-2-oxo-4-(tetrahydro-2H-pyran-4-ylsulfonyl)pyridin-1(2H)-yl)propanamide] |
| > 15.8 µM | Cc1cc(S(=O)(=O)c2cccc(F)c2)cc(=O)n1[C@H](CC1CCOCC1)C(=O)Nc1ncc(F)s1 [Example 190, (R)-2-(4-(3-fluorophenylsulfonyl)-6-methyl-2-oxopyridin-1(2H)-yl)-N-(5-fluorothiazol-2-yl)-3-(tetrahydro-2H-pyran-4-yl)propanamide] |
| 1.58 to 15.8 µM | Cc1cc(S(=O)(=O)c2cccc(F)c2)cc(=O)n1[C@@H](CC1CCOCC1)C(=O)Nc1ncc(F)s1 [Example 189, (S)-2-(4-(3-fluorophenylsulfonyl)-6-methyl-2-oxopyridin-1(2H)-yl)-N-(5-fluorothiazol-2-yl)-3-(tetrahydro-2H-pyran-4-yl)propanamide] |
| < 1.58 µM | Cc1c(S(=O)(=O)C2CCCC2)cc(=O)n([C@@H](CC2CCOCC2)C(=O)Nc2ncc(F)s2)c1C [Example 151, (S)-2-(4-(cyclopentylsulfonyl)-5,6-dimethyl-2-oxopyridin-1(2H)-yl)-N-(5-fluorothiazol-2-yl)-3-(tetrahydro-2H-pyran-4-yl)propanamide] |
| 1.58 to 15.8 µM | Cc1cc(S(=O)(=O)c2cc(Cl)sc2Cl)cc(=O)n1C(CC1CCOCC1)C(=O)Nc1ncc(Cl)s1 (stereo not shown) [Example 119, N-(5-chlorothiazol-2-yl)-2-(4-(2,5-dichlorothiophen-3-ylsulfonyl)-6-methyl-2-oxopyridin-1(2H)-yl)-3-(tetrahydro-2H-pyran-4-yl)propanamide] |
| < 1.58 µM | O=C(Nc1ncc(F)s1)C(CC1CCOCC1)n1ccc(S(=O)(=O)c2ccccn2)cc1=O (stereo not shown) [Example 50, N-(5-fluorothiazol-2-yl)-2-(2-oxo-4-(pyridin-2-ylsulfonyl)pyridin-1(2H)-yl)-3-(tetrahydro-2H-pyran-4-yl)propanamide] |
| > 15.8 µM | Cc1cc(S(=O)(=O)C2CCCC2)cc(=O)n1[C@H](CC1CCOCC1)C(=O)Nc1ncc(F)s1 [Example 39, (R)-2-(4-(cyclopentylsulfonyl)-6-methyl-2-oxopyridin-1(2H)-yl)-N-(5-fluorothiazol-2-yl)-3-(tetrahydro-2H-pyran-4-yl)propanamide] |
